Experimental data as given in ChEMBL document CHEMBL3259685, “Successful application of serum shift prediction models to the design of dual targeting inhibitors of bacterial gyrase B and topoisomerase IV with improved in vivo efficacy” (Bioorg Med Chem Lett, 2014).
Values after ≈ are worked out from the molar mass of the structure shown. Active and inactive are the calls of the source. No cut-off for these calls is given here.

Columns and labels:
[1] = Clearance in rat at 2.8 to 9.5 mg/kg, iv; format: ADME, organism-based; set-up: dose 2.8-9.5 mg/kg, route intravenous; details: in vivo
[2] = Volume of distribution at steady state in rat at 2.8 to 9.5 mg/kg, iv; format: ADME, organism-based; set-up: dose 2.8-9.5 mg/kg, route intravenous; details: in vivo, read-out: Vdss
Staphylococcus aureus [3] = experiment: Antimicrobial activity against Staphylococcus aureus ATCC 29213 in presence of 50% human serum; format: functional
[4] = Half life in rat at 2.8 to 9.5 mg/kg, iv; format: ADME, organism-based; set-up: dose 2.8-9.5 mg/kg, route intravenous; details: in vivo
Staphylococcus aureus [5] = experiment: Antimicrobial activity against Staphylococcus aureus ATCC 29213; format: functional
Staphylococcus aureus [6] = experiment: Antimicrobial activity against Staphylococcus aureus in rat thigh assessed as log reduction of CFU at 50 mg/kg, iv after 6 hrs; format: functional
Rattus norvegicus = experiment: Dose normalized AUC in rat at 2.8 to 9.5 mg/kg, iv; format: ADME, organism-based; set-up: dose 2.8-9.5 mg/kg, route intravenous; details: in vivo
Streptococcus pneumoniae [7] = experiment: Antimicrobial activity against Streptococcus pneumoniae in presence of 50% human serum; format: functional
Streptococcus pneumoniae [8] = experiment: Antimicrobial activity against Streptococcus pneumoniae; format: functional
Streptococcus pneumoniae [9] = experiment: Antimicrobial activity against Streptococcus pneumoniae infected in rat lung infection model assessed as log reduction of bacterial density at 38.5 mg/kg, iv; format: functional
Staphylococcus aureus [10] = experiment: Antimicrobial activity against Staphylococcus aureus ATCC 29213 infected in Sprague-Dawley rat cyclophosphamide-induced neutropenic sepsis model assessed as host survival at 25 mg/kg, iv administered 1 hr after bacterial infection measured up to 120 hrs; details: ATCC 29213, iv
Staphylococcus aureus [11] = experiment: Antimicrobial activity against Staphylococcus aureus at 25 mg/kg, iv
Staphylococcus aureus [12] = experiment: Antimicrobial activity against Staphylococcus aureus in rat thigh assessed as log reduction of CFU at 30 mg/kg, iv after 8 hrs; format: functional
Streptococcus pneumoniae [13] = experiment: Antimicrobial activity against Streptococcus pneumoniae infected in rat lung infection model assessed as log reduction of bacterial density at 3 mg/kg, po; format: functional
Streptococcus pneumoniae [14] = experiment: Antimicrobial activity against Streptococcus pneumoniae infected in rat lung infection model assessed as log reduction of bacterial density at 30 mg/kg, po; format: functional
Staphylococcus aureus [15] = experiment: Antimicrobial activity against Staphylococcus aureus in rat thigh assessed as log reduction of CFU at 3 mg/kg, iv after 8 hrs; format: functional

| Structure (SMILES) | MIC (Staphylococcus aureus [3]) [µg/mL] | MIC (Staphylococcus aureus [5]) [µg/mL] | clearance [1] [mL/min/kg] | Vd [2] [L/kg] | half-life [4] [min] | AUC/dose (Rattus norvegicus) [µg·h/mL] | fold change (FC) (Streptococcus pneumoniae [7]) | MIC (Streptococcus pneumoniae [8]) [ng/mL] | also measured |
| --- | --- | --- | --- | --- | --- | --- | --- | --- | --- |
| CCNC(=O)Nc1nc2cc(-c3cccnc3)cc(-c3ccccn3)c2[nH]1 | 2 | 0.047 (≈ 0.131 µM) | 12.5 | 1.1 | 126 | 1.6 | 43 | 4 (≈ 0.0112 µM) | FC (Streptococcus pneumoniae [9]): 3; survival at 25 mg/kg (Staphylococcus aureus [10]): 20%; Activity (Staphylococcus aureus [11]): Active |
| CCNC(=O)Nc1nc2cc(-c3ccc(CN(C)C)nc3)cc(-c3ncccn3)c2[nH]1 | 0.125 | 0.5 (≈ 1.2 µM) | – | – | – | – | – | – | – |
| CCNC(=O)Nc1nc2cc(-c3ccc(C(N)=O)nc3)cc(-c3ncccn3)c2[nH]1 | 0.25 | 0.064 (≈ 0.159 µM) | – | – | – | – | – | – | – |
| CCNC(=O)Nc1nc2cc(-c3cnc(CN4CCOCC4)nc3)cc(-c3ncccc3F)c2[nH]1 | 0.125 | 0.125 (≈ 0.262 µM) | – | – | – | – | – | – | – |
| CCNC(=O)Nc1nc2cc(-c3cnc4ccccc4c3)cc(-c3ncccn3)c2[nH]1 | 2 | 0.032 (≈ 0.0782 µM) | – | – | – | – | – | – | – |
| CC(=O)NC[C@H]1CN(c2ccc(N3CCOCC3)c(F)c2)C(=O)O1 [LINEZOLID] | – | 1.56 (≈ 4.62 µM) | 14.5 | 1 | 42 | 1.1 | 1 | 400 (≈ 1.19 µM) | survival at 25 mg/kg (Staphylococcus aureus [10]): 30%; FC (Staphylococcus aureus [12]): 1.4; FC (Streptococcus pneumoniae [13]): 0.8; FC (Streptococcus pneumoniae [14]): 4.5; Activity (Staphylococcus aureus [15]): inactive |

More lines, main results first:

| MIC (Staphylococcus aureus [3]) [µg/mL] | MIC (Staphylococcus aureus [5]) [µg/mL] | Structure (SMILES) | clearance [1] [mL/min/kg] | Vd [2] [L/kg] | half-life [4] [min] | AUC/dose (Rattus norvegicus) [µg·h/mL] | fold change (FC) (Streptococcus pneumoniae [7]) | MIC (Streptococcus pneumoniae [8]) [ng/mL] | also measured |
| --- | --- | --- | --- | --- | --- | --- | --- | --- | --- |
| 0.625 | 0.031 (≈ 0.0824 µM) | CCNC(=O)Nc1nc2cc(-c3cccnc3)cc(-c3ncccc3F)c2[nH]1 | 14 | 1.6 | 42 | 1.1 | 20 | 4 (≈ 0.0106 µM) | FC (Staphylococcus aureus [6]): 1.5 |
| 0.25 | 0.032 (≈ 0.0735 µM) | CCNC(=O)Nc1nc2cc(-c3cnc(C(C)(C)O)nc3)cc(-c3ncccc3F)c2[nH]1 | 23 | 2.1 | 72 | 0.8 | 8 | 4 (≈ 0.00919 µM) | FC (Staphylococcus aureus [12]): 2.1; FC (Streptococcus pneumoniae [13]): 3.7; FC (Streptococcus pneumoniae [14]): 5.8; FC (Staphylococcus aureus [15]): 1.7 |
| 4 | 0.125 (≈ 0.36 µM) | CCNC(=O)Nc1nc2cc(-c3cccnc3)cc(-n3cccn3)c2[nH]1 | – | – | – | – | – | – | – |
| 0.5 | 0.5 (≈ 1.27 µM) | CCNC(=O)Nc1nc2cc(-c3ccc[n+]([O-])c3)cc(-c3ncccc3F)c2[nH]1 | – | – | – | – | – | – | – |
| 0.25 | 0.125 (≈ 0.334 µM) | CCNC(=O)Nc1nc2cc(-c3ccc(N)nc3)cc(-c3ncccn3)c2[nH]1 | – | – | – | – | – | – | – |
